From PubChem BioAssay (NCI)
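The compound was tested at five concentrations on cells cultured in 96-well plates, with a 48-hour exposure period. GI50 = concentration required for 50% inhibition of growth. TGI is the concentration that stops growth completely.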

Assays:
Experiment in all cases: DTP human tumour cell line panel, 48 h
[1] = test system: U251 CNS
[2] = test system: NCI-H23 lung
[3] = test system: HCT-15 colon
[4] = test system: DU-145 prostate
[5] = test system: KM12 colon
[6] = test system: HL-60(TB) leukemia
[7] = test system: NCI-H460 lung
[8] = test system: MDA-MB-435
[9] = test system: OVCAR-4 ovarian
[10] = test system: HCC-2998 colon

SMILES | TGI [1] | TGI [2] | TGI [3] | TGI [4] | TGI [5] | TGI [6] | TGI [7] | TGI [8] | TGI [9] | TGI [10] | GI50 [1] | GI50 [2] | GI50 [3] | GI50 [4] | GI50 [5] | GI50 [6] | GI50 [7] | GI50 [8] | GI50 [9] | GI50 [10]
CN(C)Cc1cc(C(F)(F)F)ccc1C(O)(c1ccccc1)c1ccccc1 | 24.9 µM | 79.3 µM | 28.6 µM | > 100 µM | 49.6 µM | 24.7 µM | 28.1 µM | 58 µM | 37.5 µM | – | – | – | – | – | – | – | – | – | – | –
N#C/C(=C/c1cccc(Oc2ccccc2)c1)c1ccccc1 | > 100 µM | > 100 µM | > 100 µM | – | > 100 µM | > 100 µM | > 100 µM | – | > 100 µM | > 100 µM | – | – | – | – | – | – | – | – | – | –
O=C1COc2cc(NC(=S)Nc3ccccc3)ccc2N1 | > 100 µM | > 100 µM | > 100 µM | – | > 100 µM | > 100 µM | > 100 µM | – | > 100 µM | > 100 µM | – | – | – | – | – | – | – | – | – | –
C=C(C)[C@@H]1CC[C@]2(COCCCN)CC[C@]3(C)[C@H](CC[C@@H]4[C@@](C)(CCCNCCCN)[C@H](C(=C)C)CC[C@]43C)[C@@H]12 | 3.19 µM | 3.63 µM | 2.63 µM | 3.43 µM | 3.14 µM | 3.47 µM | 3.44 µM | 3.41 µM | 3.17 µM | – | 1.7 µM | 1.79 µM | 1.3 µM | 1.92 µM | 1.74 µM | 1.64 µM | 1.8 µM | 1.84 µM | 1.72 µM | –
O=C1C(=O)c2ccccc2C(O)=C1C(C1=C(O)c2ccccc2C(=O)C1=O)c1ccc(Cl)cc1 | 16.3 µM | 27.8 µM | 32 µM | 10.3 µM | 25 µM | 4.83 µM | 28.9 µM | 3.38 µM | 18.6 µM | – | – | – | – | – | – | – | – | – | – | –
NC1=NN(c2ccccc2)C(=O)C1C(=O)CCC(=O)Nc1cccc(Cl)c1 (configuration not stated) | > 100 µM | > 100 µM | > 100 µM | – | > 100 µM | > 100 µM | > 100 µM | – | > 100 µM | > 100 µM | – | – | – | – | – | – | – | – | – | –
CC(=O)Oc1cc2c(cc1OC(C)=O)C1(C)CCC2(C)c2cc(OC(C)=O)c(OC(C)=O)cc21 | – | > 100 µM | 85.3 µM | – | 28.8 µM | 19.9 µM | 50 µM | – | 32.1 µM | 71.9 µM | – | – | – | – | – | – | – | – | – | –
Cc1cn(C2CC(OC(=O)c3ccc(Cl)cc3)C(COC(=O)c3ccc(Cl)cc3)O2)c(=O)[nH]c1=O (configuration not stated) | > 100 µM | > 100 µM | > 100 µM | > 100 µM | > 100 µM | > 100 µM | > 100 µM | > 100 µM | > 100 µM | – | – | – | – | – | – | – | – | – | – | –
COc1ccc2nc3cc(Cl)ccc3c(Sc3ccc([N+](=O)[O-])cc3C)c2c1 | > 100 µM | > 100 µM | > 100 µM | – | > 100 µM | – | > 100 µM | – | > 100 µM | > 100 µM | – | – | – | – | – | – | – | – | – | –
O=C(Nc1ccc(C(F)(F)F)cc1[N+](=O)[O-])C(=O)C1NC(=S)NC1=O (configuration not stated) | > 100 µM | > 100 µM | > 100 µM | – | > 100 µM | > 100 µM | > 100 µM | – | > 100 µM | > 100 µM | – | – | – | – | – | – | – | – | – | –
C[C@]12CC=CC(=O)[C@@]1(C)CCC(=O)C2 | > 100 µM | > 100 µM | – | – | > 100 µM | > 100 µM | > 100 µM | – | > 100 µM | > 100 µM | – | – | – | – | – | – | – | – | – | –
CSC(SC)(C(=O)O)c1cc(-c2c(Cl)cccc2Cl)no1 | > 100 µM | 79 µM | 41.9 µM | > 100 µM | – | – | > 100 µM | > 100 µM | > 100 µM | – | – | – | – | – | – | – | – | – | – | –
CC(=O)C1C(c2ccccc2)C2(C)OC(=O)C(C#N)C12C (configuration not stated) | > 100 µM | > 100 µM | > 100 µM | – | > 100 µM | > 100 µM | > 100 µM | – | > 100 µM | – | – | – | – | – | – | – | – | – | – | –
CC(=O)c1ccc(NC(=O)/C(CC(=O)c2sc(-c3cccnc3)nc2C)=N/NC(N)=O)cc1 | > 100 µM | – | > 100 µM | – | > 100 µM | 72.9 µM | > 100 µM | – | > 100 µM | – | – | – | – | – | – | – | – | – | – | –
O=S(=O)(C1=CC(S(=O)(=O)c2ccccc2)CN(Cc2ccccc2)C1c1cccc2ccccc12)c1ccccc1 (configuration not stated) | > 69 µM | > 69 µM | > 69 µM | – | > 69 µM | > 69 µM | > 69 µM | – | > 69 µM | > 69 µM | – | – | – | – | – | – | – | – | – | –
CCOC1C(Br)Cn2c(=O)c3cc4ccccc4cc3c(=O)n2C1C (configuration not stated) | > 100 µM | > 100 µM | > 100 µM | – | > 100 µM | > 100 µM | > 100 µM | – | > 100 µM | > 100 µM | – | – | – | – | – | – | – | – | – | –
Nc1ncc(-c2cnn(C3CCNCC3)c2)cc1-c1nc2cc(Cl)ccc2o1 | 2.73 µM | 3.14 µM | 1.71 µM | 3.08 µM | 1.71 µM | 3.2 µM | 3.28 µM | 3.36 µM | – | 2.82 µM | 1.38 µM | 1.62 µM | 0.495 µM | 1.63 µM | 0.392 µM | 1.56 µM | 1.68 µM | 1.77 µM | – | 1.47 µM
NC(CCCC(N)P(=O)(O)O)P(=O)(O)O (configuration not stated) | > 100 µM | > 100 µM | > 100 µM | – | > 100 µM | – | > 100 µM | – | – | > 100 µM | – | – | – | – | – | – | – | – | – | –
CCCCCCCCCCCCCP(=O)(O)O | > 100 µM | > 100 µM | > 100 µM | – | > 100 µM | > 100 µM | > 100 µM | – | > 100 µM | > 100 µM | – | – | – | – | – | – | – | – | – | –
OCC12C=CC(C1)c1ccccc12 (configuration not stated) | > 100 µM | > 100 µM | > 100 µM | – | – | > 100 µM | > 100 µM | – | > 100 µM | > 100 µM | – | – | – | – | – | – | – | – | – | –
CCN1CCCc2cc3c(C(F)(F)F)cc(=O)oc3cc21 | > 100 µM | > 100 µM | > 100 µM | > 100 µM | > 100 µM | – | > 100 µM | > 100 µM | > 100 µM | > 100 µM | – | – | – | – | – | – | – | – | – | –
C=CC[P@]1(=O)O[C@H](c2ccccc2)[C@H](C)N1C | > 100 µM | > 100 µM | > 100 µM | – | > 100 µM | > 100 µM | > 100 µM | – | > 100 µM | > 100 µM | – | – | – | – | – | – | – | – | – | –
CC(C)C(O)(C(C)C)C(C)C | > 100 µM | > 100 µM | > 100 µM | > 100 µM | > 100 µM | > 100 µM | > 100 µM | > 100 µM | > 100 µM | – | – | – | – | – | – | – | – | – | – | –
CCC1=CCN(c2cc(C)ccn2)OC1c1ccc(OC)cc1 (configuration not stated) | 44.1 µM | > 100 µM | > 100 µM | – | > 100 µM | 50.6 µM | > 100 µM | – | > 100 µM | 86.8 µM | – | – | – | – | – | – | – | – | – | –
